The text below walks through data of US6495591B1, “Fungal efflux pump inhibitors” (Essential Therapeutics, Inc., priority 1997, dated 2002).

For data set [1], the system named is C. glabrata YEM-19 (CgCDR overexpressor). Type of data set: cell-based.
The test system of data set [2] is C. albicans YEM-14 (low level CDR1 expressor). Briefly: microbe, parasite or virus in culture. Type of data set: cell-based.
Data set [3] concerns S. cerevisiae YEM-1 (CDR1 introduced). Briefly: microbe, parasite or virus in culture. Type of data set: cell-based. The settings on record: Saccharomyces cerevisiae, read-out: MIC Mb alone.
The subject of data set [4] is S. cerevisiae YEM-39 (CgCDR introduced). Briefly: microbe, parasite or virus in culture. Type of data set: cell-based. The note with it: Saccharomyces cerevisiae, read-out: MIC Mb alone.
Another data set has as its target CDR1 efflux pump (Candida albicans, UniProt P43071). Nature of the data set: Follow-up evaluation of screening hit, efflux pump inhibition. The note with it: follow-up evaluation of screen hit.
Data set [5] deals with C. albicans YEM-27 (CDR1, CDR2, BEN, FLU1 deleted). Nature of the data set: microbe, parasite or virus in culture. Type of data set: cell-based.
In data set [6] the test system is C. albicans YEM-10 (low level CDR1 expressor). Briefly: microbe, parasite or virus in culture. Type of data set: cell-based.
Data set [7] has as its system S. cerevisiae YEM-37 (CDR2 introduced). Briefly: microbe, parasite or virus in culture. Type of data set: cell-based. The settings on record: Saccharomyces cerevisiae, read-out: MIC Mb alone.
For data set [8], the system named is P388/ADM, adriamycin resistant subline. Nature of the data set: Adriamycin cytotoxicity (MTT), P-glycoprotein assay. On the procedure:
(§1) The inhibitory effect of milbemycin β1 against the mammalian P-glycoprotein multi-drug resistant pump was determined following the procedure described by Tsuruo et al (Cancer Res., 1981. 41:1967-1972) with slight modification. The cytotoxicity of antitumor agent, adriamycin, against adriamycin sensitive P388 cell line (mouse leukemia) and its adriamycin resistant subline line (P388/ADM) was measured in the presence of various concentrations of milbemycin β1. […] The assay is performed in serum-free media containing 20 μM of 2-mercaptoethanol. Chemosensitivity to adriamycin was determined […] based on the reduction of MTT (3-[4,5-dimethylthiazol-2-yl]-2,5-diphenyltetrazolium bromide) into blue formazan.

Data set [9] deals with P388 cell line (mouse leukemia), adriamycin sensitive. The description is as above. On the procedure:
as §1

The test system of data set [10] is C. albicans clinical isolates (n = 33). Briefly: microbe, parasite or virus in culture. Type of data set: cell-based.
The subject of the next data set is C. tropicalis. Nature of the data set: microbe, parasite or virus in culture. The format is cell-based.
The test system of the next data set is C. neoformans. Nature of the data set: microbe, parasite or virus in culture. The format is cell-based, Cryptococcus neoformans.
For data set [11], the system named is C. albicans YEM-15 (CDR1 & CDR2 overexpressor). Briefly: microbe, parasite or virus in culture. The format is cell-based. Also on record: MIC Reduction Factor, fluconazole / MIC Reduction Factor, itraconazole / MIC Reduction Factor, ketoconazole / MIC Reduction Factor, terbinafine: unit not given beside the values. The settings on record: for MIC: Candida albicans.

Where [12] appears, read: Candida albicans, read-out: MIC Mb alone.
[13] abbreviates: YEM-15, milbemycin α9 at FEPImax.

SMILES strings stand for the structures. ≈ marks a conversion by molar mass, not a printed value. Like-named read-outs stand apart in the source and are kept apart here.

CDR1 efflux pump, sequence (P43071 whole entry): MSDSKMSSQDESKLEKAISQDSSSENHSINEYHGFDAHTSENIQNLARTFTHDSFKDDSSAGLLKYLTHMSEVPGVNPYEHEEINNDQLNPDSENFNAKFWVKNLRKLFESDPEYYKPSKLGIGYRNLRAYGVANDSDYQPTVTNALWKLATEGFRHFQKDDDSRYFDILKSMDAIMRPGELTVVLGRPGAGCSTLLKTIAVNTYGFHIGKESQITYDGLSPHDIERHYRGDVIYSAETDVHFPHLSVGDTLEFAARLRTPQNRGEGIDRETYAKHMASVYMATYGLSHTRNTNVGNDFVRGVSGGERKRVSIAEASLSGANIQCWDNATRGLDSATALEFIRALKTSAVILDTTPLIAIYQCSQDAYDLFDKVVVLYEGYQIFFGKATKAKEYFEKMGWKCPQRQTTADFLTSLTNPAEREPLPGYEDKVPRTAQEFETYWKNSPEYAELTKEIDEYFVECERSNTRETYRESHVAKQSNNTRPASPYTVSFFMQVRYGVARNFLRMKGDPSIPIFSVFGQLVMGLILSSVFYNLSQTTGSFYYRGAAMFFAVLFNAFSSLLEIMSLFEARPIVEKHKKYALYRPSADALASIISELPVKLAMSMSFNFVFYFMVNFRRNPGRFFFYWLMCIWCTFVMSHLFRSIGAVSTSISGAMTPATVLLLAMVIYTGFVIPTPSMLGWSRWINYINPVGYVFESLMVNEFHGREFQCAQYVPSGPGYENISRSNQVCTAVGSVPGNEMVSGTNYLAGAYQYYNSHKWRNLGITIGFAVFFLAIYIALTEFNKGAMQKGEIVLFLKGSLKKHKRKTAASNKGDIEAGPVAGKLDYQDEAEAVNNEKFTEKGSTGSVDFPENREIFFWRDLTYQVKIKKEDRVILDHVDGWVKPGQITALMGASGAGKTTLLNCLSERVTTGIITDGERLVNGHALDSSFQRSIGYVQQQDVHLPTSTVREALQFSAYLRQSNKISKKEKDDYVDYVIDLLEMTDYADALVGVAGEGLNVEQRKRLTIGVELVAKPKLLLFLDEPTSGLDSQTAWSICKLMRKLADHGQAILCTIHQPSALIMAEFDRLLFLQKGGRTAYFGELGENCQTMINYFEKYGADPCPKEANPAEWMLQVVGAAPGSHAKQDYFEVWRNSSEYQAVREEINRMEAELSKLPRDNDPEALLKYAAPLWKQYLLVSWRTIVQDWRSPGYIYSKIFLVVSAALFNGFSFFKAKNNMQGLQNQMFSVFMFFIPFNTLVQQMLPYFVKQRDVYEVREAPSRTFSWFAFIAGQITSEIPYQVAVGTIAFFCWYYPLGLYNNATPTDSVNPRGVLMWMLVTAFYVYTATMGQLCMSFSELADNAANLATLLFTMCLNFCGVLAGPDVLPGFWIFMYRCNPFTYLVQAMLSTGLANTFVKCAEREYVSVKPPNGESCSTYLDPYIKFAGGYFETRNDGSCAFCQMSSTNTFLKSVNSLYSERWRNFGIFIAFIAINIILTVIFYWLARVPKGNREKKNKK
Method for CDR1 efflux pump: An exemplary screen uses C. albicans (e.g., ATCC10231) grown in YPD medium (medium described in “Guide to Yeast Genetics and Molecular Biology”, in Methods in Enzymolopy, vol. 194, pp.13, 1991,; Academic Press; Ed. C. Guthrie and G. Fink) at 30° C. […] Test and control cultures are inoculated with log-phase cells to provide approximately 10^3 CFU/ml. Cultures are incubated at 30° C. for 20-22 hrs. Cell concentration is determined by taking the OD600.

For `CO[C@H]1C[C@@]2(O)/C(CO)=C/C=C/[C@H](C)C/C(C)=C/C[C@@H]3C[C@@H](C[C@]4(CC[C@H](C)[C@@H](C)O4)O3)OC(=O)[C@@H]2C=C1C` [Compound 6, Milbemycin β1], the “Minimal concentration required to reduce the MIC of fluconazole by sixteen-fold” value in data set [1] came out at 2.5 µg/mL. The MIC was found to be 16 µg/mL (≈ 29.4 µM) in data set [2] (setting [12]); 8 µg/mL (≈ 14.7 µM) in [3]; 8 µg/mL (≈ 14.7 µM) in data set [4]; 16 µg/mL (≈ 29.4 µM) in data set [5] (setting [12]); 16 µg/mL (≈ 29.4 µM) in [6] (setting [12]); 8 µg/mL (≈ 14.7 µM) in data set [7]. The “MIC of fluconazole, Flu + Mb (2.5 μg/ml)” value was 0.125 µg/mL in data set [2] (YEM-14, milbemycin β1 2.5 μg/ml); 0.03 µg/mL in [5] (YEM-27, all four pumps deleted, milbemycin β1 2.5 μg/ml); 0.125 µg/mL in data set [6] (YEM-10, milbemycin β1 2.5 μg/ml). Further, the “Inhibition of the CDR1 efflux pump” value on CDR1 efflux pump was “inhibited the CDR1 efflux pump”. Also, the “Effect on fluconazole susceptibility” value in data set [5] (YEM-27, strain which lacked all identified efflux pumps) is reported as “No effect”. The “Adriamycin TC50, P388/ADM” value is 1.955 µg/mL in data set [8] (inhibitor 0.06 μg/ml); 0.66 µg/mL in data set [8] (inhibitor 0.25 μg/ml); 0.369 µg/mL in data set [8] (inhibitor 0.5 μg/ml); 0.215 µg/mL in data set [8] (inhibitor 1 μg/ml); 0.05 µg/mL in data set [8] (inhibitor 2 μg/ml); 0.051 µg/mL in data set [8] (inhibitor 3.125 μg/ml). Further, the “Adriamycin TC50, P388/ADM” value in data set [8] (inhibitor […]) was found to be 0.848 µg/mL. The “Adriamycin TC50, P388” value in data set [9] (inhibitor 0.06 μg/ml) amounted to 0.009 µg/mL; in data set [9] (inhibitor 0.25 μg/ml), 0.009 µg/mL; in data set [9] (inhibitor 0.5 μg/ml), 0.011 µg/mL; in data set [9] (inhibitor 1 μg/ml), 0.009 µg/mL; in data set [9] (inhibitor 2 μg/ml), 0.012 µg/mL; in [9] (inhibitor 3.125 μg/ml) it was 0.011 µg/mL. Moreover, the “Adriamycin TC50, P388” value in data set [9] (inhibitor […]) came to 0.008 µg/mL.
Consider `C/C1=C\C[C@@H]2C[C@@H](C[C@]3(CC[C@H](C)[C@@H](C)O3)O2)OC(=O)[C@@H]2C=C(COC(=O)c3ccc[nH]3)[C@@H](O)[C@H]3OC/C(=C\C=C\[C@H](C)C1)[C@]32O` [Compound 11, Milbemycin α9], for which, in [10], the “Fluconazole MIC50, + milbemycin α9” value was below 0.25 µg/mL; the “Fluconazole MIC90, + milbemycin α9” value was below 0.25 µg/mL; the “Fluconazole MIC Range, + milbemycin α9” value is below 0.25 to 1 µg/mL. The “Reduction of fluconazole MIC90 by milbemycin α9” value in data set [10] (C. albicans (n=33)) was above 512 fold. Further, the “Fluconazole MIC, + milbemycin α9” value in the data set on C. tropicalis was “≦0.25 μg/ml”. Also, the “Fluconazole MIC, + milbemycin α9” value in the data set on C. neoformans is “≦0.25 μg/ml”. For the same molecule, in data set [11] (read-out: Milbemycin α9 MIC), the MIC is above 64 µg/mL. Besides, in data set [11] (read-out: Terbinafine MIC in the presence of FEPImax), the MIC was determined as 0.125 µg/mL. Besides, in data set [11] (YEM-15), the “FEPImax (minimal milbemycin α9 conc. for maximum MIC reduction), fluconazole” value was determined as 16 µg/mL; the “FEPImax (minimal milbemycin α9 conc. for maximum MIC reduction), itraconazole” value came to 1 µg/mL; the “FEPImax (minimal milbemycin α9 conc. for maximum MIC reduction), ketoconazole” value came out at 4 µg/mL; the “FEPImax (minimal milbemycin α9 conc. for maximum MIC reduction), terbinafine” value was 4 µg/mL. For the same molecule, in data set [11] (setting [13]), the “Fluconazole MIC in the presence of FEPImax” value was 2 µg/mL; the “Itraconazole MIC in the presence of FEPImax” value was found to be 0.06 µg/mL; the “Ketoconazole MIC in the presence of FEPImax” value amounted to 0.015 µg/mL; the “MIC Reduction Factor, fluconazole” value was 64. Further, in data set [11] (setting [13]), the “MIC Reduction Factor, itraconazole” value was 8; the “MIC Reduction Factor, ketoconazole” value was 64; the “MIC Reduction Factor, terbinafine” value came out at 1024.
